The test system of the series is B. tabaci b-biotype adults and nymphs. Put plainly: Field trial on silverleaf whitefly against conventional insecticide (Example 21). The series is classed as in vivo, Bemisia tabaci. Particulars: formulations 2.0 L/ha, Diafenthiuron 0.80 L/ha. The method, then:
The trial was conducted in an irrigated conventional cotton crops in a cotton farm. […] Each replicated plot measured 24 m wide 100 m long.
Foliar applications of each treatment were made over two weeks. Pre-treatment counts were made visually of B. tabaci adults and nymphs, on the under-surface of leaves of cotton plants in each treatment. […] Data of both adults and nymphs were expressed as numbers per leaf for each treatment.
Treatment and sample dates were the independent variables.

Each structure is given as a SMILES string.

For `CC(C)c1cc(Oc2ccccc2)cc(C(C)C)c1NC(=S)NC(C)(C)C` [Diafenthiuron], the “Bemisia tabaci adults per leaf, 3 DAT” value stood at 15.33 ± 1.45 a per leaf; the “Bemisia tabaci adults per leaf, 7 DAT” value is given as 20.33 ± 2.40 ab per leaf; the “Bemisia tabaci adults per leaf, 14 DAT” value was 12.00 ± 0.88 a per leaf; the “Bemisia tabaci nymphs per leaf, 3 DAT” value is recorded as 28.67 ± 7.22 b per leaf. The “Bemisia tabaci nymphs per leaf, 7 DAT” value was 15.33 ± 2.40 a per leaf and the “Bemisia tabaci nymphs per leaf, 14 DAT” value is 17.00 ± 1.73 b per leaf. Moreover, for the setting “relative to the control”, the “Bemisia tabaci adults, 3 DAT (% mortality)” value is on record as “(54.7%)”; the “Bemisia tabaci adults, 7 DAT (% mortality)” value is “(32.2%)”; the “Bemisia tabaci adults, 14 DAT (% mortality)” value is on record as “(34.5%)”; the “Bemisia tabaci nymphs, 7 DAT (% mortality)” value is on record as “(22.1%)”. In addition, for the setting “relative to the control”, the “Bemisia tabaci nymphs, 14 DAT (% mortality)” value was “(60.6%)”. Also, the “Bemisia tabaci adults, 3 DAT (% mortality)” value (relative to the control, listed as conventional insecticide) is 38.7%.

The record behind these values is patent US9271503B2, “Control of insect pests” (priority 2011, dated 2016).
